Measured values reported in patent US20080009418A1, “Selective Inhibitors” (Alchemia LTD., priority 2004, published 2008).

What was measured:
Human δ-opioid (DOP) = target: T1, Human δ-opioid (DOP) (Homo sapiens, UniProt P41143); experiment: Radioligand binding, human δ-opioid (DOP) membranes, FlashPlate, [3H]-Bremazocine; details: compound at 10 μM, [3H]-Bremazocine; for A1: inhibition of radioligand binding: FlashPlate
T1 construct: purchased Perkin Elmer Biosignal
In short: (§1)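 Cloned human receptor membranes were coated onto FlashPlate wells and incubated with radioligand and compound (added from a 0.5 mM DMSO daughter plate) for 1 hour at room temperature in the dark. Scintillation counting gave percent inhibition, with DMSO defining total and reference ligand defining non-specific binding.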

Human κ-Opioid (KOP) = target: T2, Human κ-Opioid (KOP) (Homo sapiens, UniProt P41145); experiment: Radioligand binding, human κ-opioid (KOP) membranes, filtration, [3H]-Diprenorphine; details: compound at 10 μM, [3H]-Diprenorphine; for A2: inhibition of radioligand binding: filtration
T2 construct: purchased Perkin Elmer Biosignal
T2 sequence (P41145 whole entry): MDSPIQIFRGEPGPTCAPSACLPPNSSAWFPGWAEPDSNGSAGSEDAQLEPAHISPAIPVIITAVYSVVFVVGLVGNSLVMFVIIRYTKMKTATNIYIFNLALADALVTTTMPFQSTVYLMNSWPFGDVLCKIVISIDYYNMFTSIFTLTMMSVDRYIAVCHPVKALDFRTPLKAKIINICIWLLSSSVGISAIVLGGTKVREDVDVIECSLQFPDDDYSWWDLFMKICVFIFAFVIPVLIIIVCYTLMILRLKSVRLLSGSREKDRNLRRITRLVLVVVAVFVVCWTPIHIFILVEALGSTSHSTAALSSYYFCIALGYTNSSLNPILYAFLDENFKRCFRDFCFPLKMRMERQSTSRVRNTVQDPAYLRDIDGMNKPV
In short: (§2)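 Membranes from cloned human receptors were incubated with compound and radioligand for 1 hour at room temperature. Bound ligand was collected on 0.3% PEI-soaked filters, washed with cold 50 mM Tris-HCl pH 7.4, and counted by scintillation. Percent inhibition was computed against DMSO totals and reference-ligand nonspecific wells.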

Human Melanocortin (MC3) = target: T3, Human Melanocortin (MC3) (Homo sapiens, UniProt P41968); experiment: Radioligand binding, human melanocortin MC3 membranes, FlashPlate, [125I]-NDP-αMSH; details: compound at 10 μM, [125I]-NDP-αMSH; for A3: inhibition of radioligand binding: FlashPlate
T3 construct: purchased Perkin Elmer Biosignal
T3 sequence (P41968 whole entry): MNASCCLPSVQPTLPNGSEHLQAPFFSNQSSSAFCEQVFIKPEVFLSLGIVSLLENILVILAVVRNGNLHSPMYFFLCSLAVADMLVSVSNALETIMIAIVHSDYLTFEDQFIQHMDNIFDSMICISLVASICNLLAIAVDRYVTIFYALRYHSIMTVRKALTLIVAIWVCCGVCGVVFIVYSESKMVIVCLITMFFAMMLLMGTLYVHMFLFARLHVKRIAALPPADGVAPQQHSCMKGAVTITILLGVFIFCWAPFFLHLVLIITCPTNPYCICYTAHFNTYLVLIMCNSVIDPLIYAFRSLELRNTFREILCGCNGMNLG
In short: as §1

Human Melanocortin (MC4) = target: T4, Human Melanocortin (MC4) (Homo sapiens, UniProt P32245); experiment: Radioligand binding, human melanocortin MC4 membranes, FlashPlate, [125I]-NDP-αMSH; details: compound at 10 μM, [125I]-NDP-αMSH; for A4: inhibition of radioligand binding: FlashPlate
T4 construct: purchased Perkin Elmer Biosignal
T4 sequence (P32245 whole entry): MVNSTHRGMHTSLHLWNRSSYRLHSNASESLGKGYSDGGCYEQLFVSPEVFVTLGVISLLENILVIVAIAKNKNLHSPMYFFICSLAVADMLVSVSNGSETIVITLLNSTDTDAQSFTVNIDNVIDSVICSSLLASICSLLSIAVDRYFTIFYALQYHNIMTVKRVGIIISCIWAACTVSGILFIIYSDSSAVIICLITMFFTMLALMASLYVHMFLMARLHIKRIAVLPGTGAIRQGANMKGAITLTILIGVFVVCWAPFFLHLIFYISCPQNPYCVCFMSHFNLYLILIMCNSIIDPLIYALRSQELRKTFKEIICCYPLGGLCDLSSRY
In short: as §1

Human melanocortin (MC5) = target: T5, Human melanocortin (MC5) (Homo sapiens, UniProt P33032); experiment: Radioligand binding, human melanocortin MC5 membranes, FlashPlate, [125I]-NDP-αMSH; details: compound at 10 μM, [125I]-NDP-αMSH; for A5: inhibition of radioligand binding: FlashPlate
T5 construct: purchased Perkin Elmer Biosignal
T5 sequence (P33032 whole entry): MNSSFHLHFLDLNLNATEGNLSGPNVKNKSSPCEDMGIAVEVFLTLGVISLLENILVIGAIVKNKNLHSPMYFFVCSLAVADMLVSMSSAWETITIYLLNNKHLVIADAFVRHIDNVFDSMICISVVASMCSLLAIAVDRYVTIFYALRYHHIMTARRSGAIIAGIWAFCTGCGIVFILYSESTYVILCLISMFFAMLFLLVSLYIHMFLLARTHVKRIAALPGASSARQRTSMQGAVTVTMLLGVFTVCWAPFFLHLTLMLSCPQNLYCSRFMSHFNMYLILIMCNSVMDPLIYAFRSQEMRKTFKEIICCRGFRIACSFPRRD
In short: as §1

[1] = target: T6, Human melanin-concentrating hormone (MCH1) (Homo sapiens, UniProt Q99705); experiment: Radioligand binding, human melanin-concentrating hormone MCH1 membranes, FlashPlate, [125I]-S36057; details: compound at 10 μM; for A6: inhibition of radioligand binding: [125I]-S36057, FlashPlate
T6 construct: purchased Perkin Elmer Biosignal
T6 sequence (Q99705 whole entry): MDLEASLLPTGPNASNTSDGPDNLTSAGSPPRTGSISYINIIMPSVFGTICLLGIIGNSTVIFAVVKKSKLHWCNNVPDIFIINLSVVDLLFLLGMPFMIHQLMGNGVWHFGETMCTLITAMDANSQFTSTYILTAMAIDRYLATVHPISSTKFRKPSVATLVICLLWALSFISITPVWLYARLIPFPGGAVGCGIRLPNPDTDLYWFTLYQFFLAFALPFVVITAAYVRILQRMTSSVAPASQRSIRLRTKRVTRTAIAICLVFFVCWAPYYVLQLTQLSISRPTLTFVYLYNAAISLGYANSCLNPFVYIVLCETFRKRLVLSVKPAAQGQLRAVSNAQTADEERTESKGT
In short: as §1

Human μ-opioid (MOP) = target: T7, Human μ-opioid (MOP) (Homo sapiens, UniProt P35372); experiment: Radioligand binding, human μ-opioid (MOP) membranes, FlashPlate, [3H]-Naloxone; details: compound at 10 μM, [3H]-Naloxone; for A7: inhibition of radioligand binding: FlashPlate
T7 construct: purchased Perkin Elmer Biosignal
T7 sequence (P35372 whole entry): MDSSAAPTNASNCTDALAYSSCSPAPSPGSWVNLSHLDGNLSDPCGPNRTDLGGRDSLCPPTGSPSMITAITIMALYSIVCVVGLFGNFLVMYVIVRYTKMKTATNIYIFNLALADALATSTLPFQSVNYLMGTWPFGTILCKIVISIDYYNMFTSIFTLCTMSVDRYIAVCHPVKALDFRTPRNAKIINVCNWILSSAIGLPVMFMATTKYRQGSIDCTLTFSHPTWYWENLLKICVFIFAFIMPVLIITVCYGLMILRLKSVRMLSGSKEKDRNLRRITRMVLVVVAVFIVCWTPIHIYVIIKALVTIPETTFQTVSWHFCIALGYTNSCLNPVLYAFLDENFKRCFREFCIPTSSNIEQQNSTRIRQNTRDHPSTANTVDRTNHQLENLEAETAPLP
In short: as §1

Human neurokinin (NK1) = target: T8, Human neurokinin (NK1) (Homo sapiens, UniProt P25103); experiment: Radioligand binding, human neurokinin NK1 membranes, filtration, [125I]-Substance P; details: compound at 10 μM, [125I]-Substance P; for A8: inhibition of radioligand binding: filtration
T8 construct: purchased Perkin Elmer Biosignal
T8 sequence (P25103 whole entry): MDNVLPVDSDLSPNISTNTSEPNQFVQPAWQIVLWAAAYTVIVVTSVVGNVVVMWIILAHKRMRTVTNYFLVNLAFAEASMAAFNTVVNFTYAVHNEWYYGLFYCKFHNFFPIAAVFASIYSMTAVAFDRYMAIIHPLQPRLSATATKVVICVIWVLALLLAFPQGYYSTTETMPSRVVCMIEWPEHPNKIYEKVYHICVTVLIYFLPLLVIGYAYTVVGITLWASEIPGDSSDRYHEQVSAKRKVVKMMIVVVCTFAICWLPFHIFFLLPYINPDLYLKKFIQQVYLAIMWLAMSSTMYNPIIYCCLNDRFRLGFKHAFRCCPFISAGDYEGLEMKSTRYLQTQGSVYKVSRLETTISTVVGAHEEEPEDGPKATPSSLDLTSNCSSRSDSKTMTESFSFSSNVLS
In short: as §2

[2] = target: T9, Human neuropeptide Y (NPY-Y1) (Homo sapiens, UniProt P25929); experiment: Radioligand binding, human neuropeptide Y NPY-Y1 membranes, FlashPlate, [125I]-PYY; details: compound at 10 μM, [125I]-PYY; for A9: inhibition of radioligand binding: FlashPlate
T9 construct: purchased Perkin Elmer Biosignal
T9 sequence (P25929 1-384): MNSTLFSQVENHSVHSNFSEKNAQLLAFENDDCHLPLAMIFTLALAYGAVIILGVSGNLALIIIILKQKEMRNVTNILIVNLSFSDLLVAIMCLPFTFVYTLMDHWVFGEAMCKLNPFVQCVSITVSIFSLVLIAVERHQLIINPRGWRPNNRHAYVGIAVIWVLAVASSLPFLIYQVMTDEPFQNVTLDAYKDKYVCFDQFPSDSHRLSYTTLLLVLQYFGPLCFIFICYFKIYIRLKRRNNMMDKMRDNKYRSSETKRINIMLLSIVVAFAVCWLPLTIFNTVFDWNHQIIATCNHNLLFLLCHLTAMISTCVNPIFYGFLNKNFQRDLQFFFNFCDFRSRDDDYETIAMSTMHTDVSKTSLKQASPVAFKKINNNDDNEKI
In short: as §1

Human opioid (ORL1) = target: T10, Human opioid (ORL1) (Homo sapiens, UniProt P41146); experiment: Radioligand binding, human opioid ORL1 membranes, FlashPlate, [125I]-Nociceptin; details: compound at 10 μM, [125I]-Nociceptin; for A10: inhibition of radioligand binding: FlashPlate
T10 construct: purchased Perkin Elmer Biosignal
T10 sequence (P41146 whole entry): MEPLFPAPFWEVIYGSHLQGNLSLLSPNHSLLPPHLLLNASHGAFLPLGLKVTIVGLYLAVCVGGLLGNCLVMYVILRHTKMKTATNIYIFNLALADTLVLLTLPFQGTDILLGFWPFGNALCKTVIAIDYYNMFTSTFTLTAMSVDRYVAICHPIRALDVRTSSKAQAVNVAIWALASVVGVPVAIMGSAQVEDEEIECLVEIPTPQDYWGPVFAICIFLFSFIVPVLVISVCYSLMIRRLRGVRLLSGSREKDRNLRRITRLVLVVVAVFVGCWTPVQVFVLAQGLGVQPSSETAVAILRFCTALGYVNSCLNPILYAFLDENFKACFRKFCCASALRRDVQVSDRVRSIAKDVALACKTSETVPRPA
In short: as §1

Mouse urotensin (mUR2) = target: T11, Mouse urotensin (mUR2) (Mus musculus, UniProt Q8VIH9); experiment: Radioligand binding, mouse urotensin mUR2 membranes, FlashPlate, [125I]-Urotensin II; details: compound at 10 μM, [125I]-Urotensin II; for A11: inhibition of radioligand binding: FlashPlate
T11 construct: purchased Perkin Elmer Biosignal
T11 sequence (Q8VIH9 1-385): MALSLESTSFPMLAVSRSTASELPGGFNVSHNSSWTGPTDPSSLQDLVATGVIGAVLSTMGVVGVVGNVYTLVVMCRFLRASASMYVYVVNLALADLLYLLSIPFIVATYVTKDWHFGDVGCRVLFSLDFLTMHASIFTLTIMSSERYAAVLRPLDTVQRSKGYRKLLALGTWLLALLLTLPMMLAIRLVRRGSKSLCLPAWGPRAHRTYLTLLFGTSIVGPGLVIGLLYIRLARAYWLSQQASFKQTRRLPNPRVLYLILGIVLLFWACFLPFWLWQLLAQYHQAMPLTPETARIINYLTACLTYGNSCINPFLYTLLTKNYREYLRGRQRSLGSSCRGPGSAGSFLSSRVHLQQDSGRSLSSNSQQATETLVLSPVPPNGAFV
In short: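 Cloned mouse urotensin (mUR2) receptor membranes from Perkin Elmer Biosignal were immobilized in FlashPlate microplates using a proprietary coating. Each well got 19.5 μl buffer, then 0.5 μl of DMSO, reference ligand, or compound. Adding 5 μl of [125I]-Urotensin II, diluted to 5× final concentration in binding buffer, started binding. Plates were sealed with TopSeal-A and incubated 1 hour at room temperature in the dark. Wells were counted for 30 seconds each on a TopCount after a 60-second delay, and percentage inhibition was calculated.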

T1 sequence (P41143 whole entry): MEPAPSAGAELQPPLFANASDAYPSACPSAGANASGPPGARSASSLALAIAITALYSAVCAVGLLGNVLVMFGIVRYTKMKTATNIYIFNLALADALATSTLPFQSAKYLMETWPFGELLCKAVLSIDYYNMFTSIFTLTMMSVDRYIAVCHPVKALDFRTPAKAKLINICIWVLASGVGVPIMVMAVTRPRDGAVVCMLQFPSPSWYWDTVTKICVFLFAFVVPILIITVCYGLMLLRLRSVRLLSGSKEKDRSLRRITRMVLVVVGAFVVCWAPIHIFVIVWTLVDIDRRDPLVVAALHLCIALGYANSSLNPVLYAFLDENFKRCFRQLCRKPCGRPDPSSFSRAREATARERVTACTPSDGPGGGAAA

Row | SMILES | A1: inhibition of radioligand binding (Human δ-opioid (DOP)) | A2: inhibition of radioligand binding (Human κ-Opioid (KOP)) | A3: inhibition of radioligand binding (Human Melanocortin (MC3)) | A4: inhibition of radioligand binding (Human Melanocortin (MC4)) | A5: inhibition of radioligand binding (Human melanocortin (MC5)) | A6: inhibition of radioligand binding [1] | A7: inhibition of radioligand binding (Human μ-opioid (MOP)) | A8: inhibition of radioligand binding (Human neurokinin (NK1)) | A9: inhibition of radioligand binding [2] | A10: inhibition of radioligand binding (Human opioid (ORL1)) | A11: inhibition of radioligand binding (Mouse urotensin (mUR2)) | A1 radioligand binding, percentage inhibition (Human δ-opioid (DOP)) | A2 radioligand binding, percentage inhibition (Human κ-Opioid (KOP)) | A3 radioligand binding, percentage inhibition (Human Melanocortin (MC3)) | A4 radioligand binding, percentage inhibition (Human Melanocortin (MC4)) | A5 radioligand binding, percentage inhibition (Human melanocortin (MC5)) | A6 radioligand binding, percentage inhibition ([1]; [125I]-S36057) | A7 radioligand binding, percentage inhibition (Human μ-opioid (MOP)) | A8 radioligand binding, percentage inhibition (Human neurokinin (NK1)) | A9 radioligand binding, percentage inhibition [2] | further results
1 | COCC1OC(OCc2ccc(Cl)cc2)C(NC(=O)CCNC(=N)N)C(OCc2ccc(Cl)cc2)C1O (stereo not drawn) [compound 202] | − (“−” indicates less than 50% inhibition at 10 μM) | − (“−” indicates less than 50% inhibition at 10 μM) | + (“+” indicates greater than 50% inhibition at 10 μM) | + (“+” indicates greater than 50% inhibition at 10 μM) | + (“+” indicates greater than 50% inhibition at 10 μM) | + (“+” indicates greater than 50% inhibition at 10 μM) | − (“−” indicates less than 50% inhibition at 10 μM) | + (“+” indicates greater than 50% inhibition at 10 μM) | − (“−” indicates less than 50% inhibition at 10 μM) | − (“−” indicates less than 50% inhibition at 10 μM) | − (“−” indicates less than 50% inhibition at 10 μM) | – | – | – | – | – | – | – | – | – | –
2 | CO[C@H]1[C@H](O)[C@@H](COCc2cccc(O)c2)OC(OCc2ccc(-c3ccccc3)cc2)[C@@H]1NC(=O)CNC(=N)N (stereo partly drawn) [compound 146] | – | – | – | – | – | – | – | – | – | – | – | − (“−” indicates less than 50% inhibition at 10 μM) | + (“+” indicates greater than 50% inhibition at 10 μM) | − (“−” indicates less than 50% inhibition at 10 μM) | − (“−” indicates less than 50% inhibition at 10 μM) | + (“+” indicates greater than 50% inhibition at 10 μM) | − (“−” indicates less than 50% inhibition at 10 μM) | − (“−” indicates less than 50% inhibition at 10 μM) | + (“+” indicates greater than 50% inhibition at 10 μM) | − (“−” indicates less than 50% inhibition at 10 μM) | A10 radioligand binding, percentage inhibition (Human opioid (ORL1)): − (“−” indicates less than 50% inhibition at 10 μM); A11 radioligand binding, percentage inhibition (Mouse urotensin (mUR2)): − (“−” indicates less than 50% inhibition at 10 μM)
3 | CSC1O[C@H](COCc2ccc3ccccc3c2)[C@@H](O)[C@@H](OCc2ccc(Cl)cc2)[C@H]1NC(=O)CCNC(=N)N (stereo partly drawn) [compound 283] | − (“−” indicates less than 50% inhibition at 10 μM) | − (“−” indicates less than 50% inhibition at 10 μM) | − (“−” indicates less than 50% inhibition at 10 μM) | + (“+” indicates greater than 50% inhibition at 10 μM) | + (“+” indicates greater than 50% inhibition at 10 μM) | − (“−” indicates less than 50% inhibition at 10 μM) | − (“−” indicates less than 50% inhibition at 10 μM) | + (“+” indicates greater than 50% inhibition at 10 μM) | − (“−” indicates less than 50% inhibition at 10 μM) | − (“−” indicates less than 50% inhibition at 10 μM) | − (“−” indicates less than 50% inhibition at 10 μM) | – | – | – | – | – | – | – | – | – | –
4 | COC[C@H]1OC(OCc2cccc(O)c2)[C@H](NC(=O)CNC(=N)N)[C@@H](OCc2ccc(-c3ccccc3)cc2)[C@@H]1O (stereo partly drawn) [compound 141] | – | – | – | – | – | – | – | – | – | – | – | − (“−” indicates less than 50% inhibition at 10 μM) | − (“−” indicates less than 50% inhibition at 10 μM) | − (“−” indicates less than 50% inhibition at 10 μM) | − (“−” indicates less than 50% inhibition at 10 μM) | + (“+” indicates greater than 50% inhibition at 10 μM) | + (“+” indicates greater than 50% inhibition at 10 μM) | − (“−” indicates less than 50% inhibition at 10 μM) | − (“−” indicates less than 50% inhibition at 10 μM) | − (“−” indicates less than 50% inhibition at 10 μM) | A10 radioligand binding, percentage inhibition (Human opioid (ORL1)): − (“−” indicates less than 50% inhibition at 10 μM); A11 radioligand binding, percentage inhibition (Mouse urotensin (mUR2)): − (“−” indicates less than 50% inhibition at 10 μM)
5 | CSC1OC(COCc2ccc(Cl)cc2)C(O)C(OCc2ccc(Cl)cc2)C1NC(=O)CN (stereo not drawn) [compound 269] | − (“−” indicates less than 50% inhibition at 10 μM) | − (“−” indicates less than 50% inhibition at 10 μM) | − (“−” indicates less than 50% inhibition at 10 μM) | − (“−” indicates less than 50% inhibition at 10 μM) | − (“−” indicates less than 50% inhibition at 10 μM) | − (“−” indicates less than 50% inhibition at 10 μM) | − (“−” indicates less than 50% inhibition at 10 μM) | + (“+” indicates greater than 50% inhibition at 10 μM) | − (“−” indicates less than 50% inhibition at 10 μM) | − (“−” indicates less than 50% inhibition at 10 μM) | − (“−” indicates less than 50% inhibition at 10 μM) | – | – | – | – | – | – | – | – | – | –
6 | NCCCC(=O)NC1C(OCc2ccc(Cl)cc2)OC(COCc2ccc3ccccc3c2)C(O)C1OCc1ccc(Cl)cc1 (single isomer, unassigned) [compound 490] | – | – | – | – | – | – | – | – | – | – | – | – | – | – | – | – | – | – | – | – | A1: inhibition of radioligand binding, human δ-opioid (DOP) (Human δ-opioid (DOP)): − (“−” indicates less than 50% inhibition at 10 μM); A2: inhibition of radioligand binding, human κ-opioid (KOP) (Human κ-Opioid (KOP)): − (“−” indicates less than 50% inhibition at 10 μM); A3: inhibition of radioligand binding, human melanocortin (MC3) (Human Melanocortin (MC3)): + (“+” indicates greater than 50% inhibition at 10 μM); A4: inhibition of radioligand binding, human melanocortin (MC4) (Human Melanocortin (MC4)): + (“+” indicates greater than 50% inhibition at 10 μM); A5: inhibition of radioligand binding, human melanocortin (MC5) (Human melanocortin (MC5)): + (“+” indicates greater than 50% inhibition at 10 μM); A6: inhibition of radioligand binding, human melanin-concentrating hormone (MCH1) ([1]; [125I]-S36057, 10 µM): + (“+” indicates greater than 50% inhibition at 10 μM); A7: inhibition of radioligand binding, human μ-opioid (MOP) (Human μ-opioid (MOP)): + (“+” indicates greater than 50% inhibition at 10 μM); A8: inhibition of radioligand binding, human neurokinin (NK1) (Human neurokinin (NK1)): + (“+” indicates greater than 50% inhibition at 10 μM); A9: inhibition of radioligand binding, human neuropeptide Y (NPY-Y1) [2]: − (“−” indicates less than 50% inhibition at 10 μM); A10: inhibition of radioligand binding, human opioid (ORL1) (Human opioid (ORL1)): + (“+” indicates greater than 50% inhibition at 10 μM); A11: inhibition of radioligand binding, mouse urotensin (mUR2) (Mouse urotensin (mUR2)): − (“−” indicates less than 50% inhibition at 10 μM)
